Consider eight compounds from US20060018921A1, “Histone deacetylase inhibitors and cognitive applications” (priority 2004, published 2006).

Experiment [1] has as its system ERK2. Kind of experiment: P-ERK2 western blot, acute hippocampal slices, area CA1. The settings on record: for levels of P-ERK2: slices treated 1 h, FSK 50 μM with 100 μM Ro20-1724, U0126 20 μM, 4αP 3 μM, dFSK 50 μM with 100 μM Ro20-1724, TSA; for levels of P-ERK2 / effect of PDA on P-ERK2 after pretreatment with MEK inhibitor: PDA 3 μM; for levels of P-ERK2 / effect of NMDA on P-ERK2 after pretreatment with MEK inhibitor / effect of FSK on P-ERK2 after pretreatment with MEK inhibitor / effect of PDA on P-ERK2 after pretreatment with MEK inhibitor: PD98059 50 μM; for effect of NMDA on P-ERK2 after pretreatment with MEK inhibitor / effect of FSK on P-ERK2 after pretreatment with MEK inhibitor / effect of PDA on P-ERK2 after pretreatment with MEK inhibitor: U0126 20 μM; for effect of NMDA on P-ERK2 after pretreatment with MEK inhibitor: 100 μM NMDA 10 min; for effect of FSK on P-ERK2 after pretreatment with MEK inhibitor: FSK 50 μM with 100 μM Ro20-1724.

Experiment [2] relates to ERK1. Kind of experiment: P-ERK1 western blot, acute hippocampal slices, area CA1. The settings on record: slices treated 1 h; data not shown.
The subject of experiment [3] is histone H3 (Lys14). Kind of experiment: Acetylation of histone H3, acute hippocampal slices, area CA1. Particulars: for histone H3 acetylation: slices treated 1 h, FSK 50 μM with 100 μM Ro20-1724, 4αP 3 μM, dFSK 50 μM with 100 μM Ro20-1724, U0126 20 μM, TSA 1.65 μM; for histone H3 acetylation / effect of PDA on histone H3 acetylation after pretreatment with MEK inhibitor: PDA 3 μM; for histone H3 acetylation / effect of NMDA on acetylation of histone H3 after pretreatment with MEK inhibitor / effect of FSK on histone H3 acetylation after pretreatment with MEK inhibitor / effect of PDA on histone H3 acetylation after pretreatment with MEK inhibitor: PD98059 50 μM; for effect of NMDA on acetylation of histone H3 after pretreatment with MEK inhibitor / effect of FSK on histone H3 acetylation after pretreatment with MEK inhibitor / effect of PDA on histone H3 acetylation after pretreatment with MEK inhibitor: U0126 20 μM; for effect of NMDA on acetylation of histone H3 after pretreatment with MEK inhibitor: 100 μM NMDA 10 min; for effect of FSK on histone H3 acetylation after pretreatment with MEK inhibitor: FSK 50 μM with 100 μM Ro20-1724.

For experiment [4], the system named is Schaffer-collateral synapses. The settings on record: previous studies, Nguyen et al., 1994; cited from earlier work.
Experiment [5] concerns histone H4 (Lys5/Lys8/Lys12/Lys16). Kind of experiment: Acetylation of histone H4, acute hippocampal slices, area CA1. Particulars: 100 μM NMDA 10 min, with or without U0126 or PD98059 pretreatment.
Setting [6] is: 100 μM NMDA in Mg++-free ACSF for 10 min.

Structures are written as SMILES. Entries after “also recorded” stand apart in the source; their conditions may differ. Starred links: 1 amine or outer side, 2 acyl side, 3 side chain; linkers in the order of their positions; H or OH if unused. Positions of bridges follow the written chain, without caps; N, C: chain ends. Non-standard residues stand in square brackets, D forms with d. Residues, ends and D or L forms follow the SMILES beside them. Chains are numbered I, II in the order given. Actinocin(9to1) = Cc1c2oc3c(C)ccc(C(=O)[*:1])c3nc-2c(C(=O)[*:2])c(N)c1=O; NMeV = CN[C@H](C(=O)O)C(C)C; Sar = CNCC(=O)O

For the compound `CCCCCCCCCC(=O)O[C@@H]1[C@@H](C)[C@@]2(O)[C@@H](C=C(CO)C[C@@]3(O)C(=O)C(C)=C[C@@H]23)[C@@H]2C(C)(C)[C@]12OC(=O)CCCCCCCCC` [4αP, 4-α-phorbol 12,13-didecanoate], the “levels of P-ERK2” value is “no effect on P-ERK2” in experiment [1] and “no affect” in experiment [1] (listed as 4 αP). The “levels of P-ERK1” value in experiment [2] is reported as “no affect”. Further, the “histone H3 acetylation” value in experiment [3] was “no effect on H3 acetylation”; in experiment [3] (listed as 4 αP), “no affect on the acetylation of histone H3”.
Take `OC[C@H]1O[C@@H](n2cnc3cc(Cl)c(Cl)cc32)[C@H](O)[C@@H]1O` [DRB, 5,6-dichlorobenzimidazole riboside]: the basal synaptic transmission result in experiment [4] is on record as “no effect on basal synaptic transmission”.
For the compound `CN[C@H](CC(=O)O)C(=O)O` [NMDA], in experiment [1] (setting [6]), the “phosphorylation of ERK2 in area CA1” value is listed as “induced significant increases in P-ERK2; also recorded: significantly increased”. For the same compound, the “acetylation of histone H3 in area CA1” value in experiment [3] (setting [6]) is reported as “increased acetylation of histone H3; also recorded: significantly increased”. Also, in experiment [5], the “acetylation of histone H4 in area CA1” value is reported as “no affect on acetylation of histone H4”.
Take `COc1cccc(-c2cc(=O)c3ccccc3o2)c1N` [PD98059]: in experiment [1], the “effect of NMDA on P-ERK2 after pretreatment with MEK inhibitor” value is listed as “blocked; also recorded: inhibited the affect of NMDA on P-ERK2”, the “effect of FSK on P-ERK2 after pretreatment with MEK inhibitor” value is listed as “blocked”, the “effect of PDA on P-ERK2 after pretreatment with MEK inhibitor” value was “blocked” and the “levels of P-ERK2” value is “diminished”. Moreover, in experiment [3], the “effect of NMDA on acetylation of histone H3 after pretreatment with MEK inhibitor” value is on record as “blocked; also recorded: inhibited the affect of NMDA on acetylation of histone H3”, the “effect of FSK on histone H3 acetylation after pretreatment with MEK inhibitor” value is listed as “blocked; also recorded: inhibited”, the “effect of PDA on histone H3 acetylation after pretreatment with MEK inhibitor” value is listed as “blocked; also recorded: inhibited” and the “histone H3 acetylation” value is given as “no effect on basal levels of acetylation of histone H3”.
Consider `CC(=O)O[C@@H]1[C@@H](C)[C@@]2(O)[C@@H](C=C(CO)C[C@]3(O)C(=O)C(C)=C[C@@H]23)[C@@H]2C(C)(C)[C@]12OC(C)=O` [PDA, phorbol 12,13-diacetate], for which the “levels of P-ERK2” value in experiment [1] is “significantly increased; also recorded: significant increases in levels of P-ERK2”. In addition, the “levels of P-ERK1” value in experiment [2] was “significantly increased”. In addition, the “histone H3 acetylation” value in experiment [3] is given as “significantly increased acetylation of histone H3”.
For `N#CC(=C(/N)Sc1ccccc1N)/C(C#N)=C(\N)Sc1ccccc1N` [U0126], in experiment [1], the “effect of NMDA on P-ERK2 after pretreatment with MEK inhibitor” value is on record as “blocked; also recorded: inhibited the affect of NMDA on P-ERK2”, the “effect of FSK on P-ERK2 after pretreatment with MEK inhibitor” value was “blocked”, the “effect of PDA on P-ERK2 after pretreatment with MEK inhibitor” value was “blocked” and the “levels of P-ERK2” value is given as “diminished”. Moreover, in experiment [3], the “effect of NMDA on acetylation of histone H3 after pretreatment with MEK inhibitor” value is “blocked; also recorded: inhibited the affect of NMDA on acetylation of histone H3”, the “effect of FSK on histone H3 acetylation after pretreatment with MEK inhibitor” value is “blocked; also recorded: inhibited”, the “effect of PDA on histone H3 acetylation after pretreatment with MEK inhibitor” value is “blocked; also recorded: inhibited” and the “histone H3 acetylation” value was “no effect on basal levels of acetylation of histone H3”.
Consider `Cc1c2oc3c(C)ccc(C(=O)N[C@@H]4C(=O)N[C@H](C(C)C)C(=O)N5CCC[C@H]5C(=O)N(C)CC(=O)N(C)[C@@H](C(C)C)C(=O)O[C@@H]4C)c3nc-2c(C(=O)N[C@@H]2C(=O)N[C@H](C(C)C)C(=O)N3CCC[C@H]3C(=O)N(C)CC(=O)N(C)[C@@H](C(C)C)C(=O)O[C@@H]2C)c(N)c1=O` [actinomycin D, Actinomycin D] (I: T[dV]P[Sar][NMeV] / II: T[dV]P[Sar][NMeV]; ester I:1-I:C, II:1-II:C; linker I:N-II:N via Actinocin(9to1)), for which the basal synaptic transmission entry in experiment [4] was “no effect on synaptic transmission”.
With `C=C[C@@]1(C)CC(=O)[C@@H]2[C@@]3(C)CCCC(C)(C)[C@@H]3[C@H](O)[C@H](OC(C)=O)[C@@]2(C)O1` [dFSK, 1,9 dideoxyforskolin], the “levels of P-ERK2” value in experiment [1] is recorded as “no affect; also recorded: no effect on P-ERK2”. Moreover, the “levels of P-ERK1” value in experiment [2] was “no affect”. Moreover, the “histone H3 acetylation” value in experiment [3] is on record as “no affect on the acetylation of histone H3; also recorded: no effect on H3 acetylation”.
